# Laboratory results reported in publication PMC11400957 (The Journal of Biological Chemistry, 2024).
# Target: IpaD^WT (full-length) (Shigella flexneri, UniProt P18013)
# Test: CD thermal unfolding at […] nm
# Format: binding
# Conditions: 1 mM DOC, PBS pH 7.4, 0.5 mg/ml protein; absolute Tm with ligand, not a shift; nonspecific detergent effect not excluded
# Chain of IpaD^WT (full-length) (P18013 whole entry): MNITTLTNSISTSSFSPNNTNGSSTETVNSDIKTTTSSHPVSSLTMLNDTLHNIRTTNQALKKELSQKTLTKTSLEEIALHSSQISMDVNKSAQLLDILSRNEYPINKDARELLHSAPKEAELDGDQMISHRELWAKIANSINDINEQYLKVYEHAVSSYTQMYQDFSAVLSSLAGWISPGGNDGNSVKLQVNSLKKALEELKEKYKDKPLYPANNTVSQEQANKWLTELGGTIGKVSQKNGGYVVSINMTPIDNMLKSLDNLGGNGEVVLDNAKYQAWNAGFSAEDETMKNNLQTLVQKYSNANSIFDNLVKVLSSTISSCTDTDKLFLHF
structure (smiles),measurement,value
C[C@H](CCC(=O)O)[C@H]1CC[C@H]2[C@@H]3CC[C@@H]4C[C@H](O)CC[C@]4(C)[C@H]3C[C@H](O)[C@]12C [deoxycholate],Tm ^b (°C ± SD) / +DOC,77 ± 1 °C
